Measurements from patent US20070219234A1, “Thienopyridine Derivatives” (priority 2004, published 2007).

Structure (SMILES) | melting point
N#Cc1ccc(N2CCCN(c3ccnc4sc(C(N)=O)c(N)c34)CC2)cc1 [Example 62, 3-amino-4-[4-(4-cyanophenyl)-1,4-diazepan-1-yl]thieno[2,3-b]pyridine-2-carboxamide] | 151 to 153 °C
CC(C)(C)OC(=O)N1CCCN(c2ccnc3sc(C(N)=O)c(N)c23)CC1 [Example 55, tert-butyl 4-[3-amino-2-(aminocarbonyl)thieno[2,3-b]pyridin-4-yl]-1,4-diazepane-1-carboxylate] | 177 to 178 °C
NC(=O)c1sc2nccc(NC3CCCCCC3)c2c1N [Example 12, 3-amino-4-(cycloheptylamino)thieno[2,3-b]pyridine-2-carboxamide] | 206 to 208 °C
CCN1CCN(c2ccnc3sc(C(N)=O)c(N)c23)CC1 [Example 40, 3-amino-4-(4-ethylpiperazin-1-yl)thieno[2,3-b]pyridine-2-carboxamide] | 218 to 219 °C
NC(=O)c1sc2nccc(OC3CCCCCC3)c2c1N [Example 112, 3-amino-4-(cycloheptyloxy)thieno[2,3-b]pyridine-2-carboxamide] | 179 to 180 °C
NC(=O)c1sc2nccc(N3CCCCCC3)c2c1N [Example 25, 3-amino-4-azepan-1-ylthieno[2,3-b]pyridine-2-carboxamide] | 219 to 221 °C
NC(=O)c1sc2nccc(N3CCCN(Cc4ccccc4)CC3)c2c1N [Example 56, 3-amino-4-(4-benzyl-1,4-diazepan-1-yl)thieno[2,3-b]pyridine-2-carboxamide] | 194 to 195 °C
CCN(CC)c1ccnc2sc(C(N)=O)c(N)c12 [Example 2, 3-amino-4-(diethylamino)thieno[2,3-b]pyridine-2-carboxamide] | 127 to 129 °C
Cc1ccc(N2CCN(c3ccnc4sc(C(N)=O)c(N)c34)CC2)cc1 [Example 46, 3-amino-4-[4-(4-methylphenyl)piperazin-1-yl]thieno[2,3-b]pyridine-2-carboxamide] | 270 °C (dec.)
NC(=O)c1sc2nccc(N3CCOCC3)c2c1N [Example 22, 3-amino-4-morpholin-4-ylthieno[2,3-b]pyridine-2-carboxamide] | 232 to 234 °C
CC(=O)OC1CCN(c2ccnc3sc(C(N)=O)c(N)c23)CC1 [Example 20, 3-amino-4-(4-acetoxypiperidin-1-yl)thieno[2,3-b]pyridine-2-carboxamide] | 231 to 235 °C
NC(=O)c1sc2nccc(N3CCC[S+]([O-])CC3)c2c1N (stereo not drawn) [Example 34, 3-amino-4-(1-oxo-1,4-thiazepan-4-yl)thieno[2,3-b]pyridine-2-carboxamide] | 111 to 119 °C
CC(C)N1CCN(c2ccnc3sc(C(N)=O)c(N)c23)CC1 [Example 41, 3-amino-4-(4-isopropylpiperazin-1-yl)thieno[2,3-b]pyridine-2-carboxamide] | 240 to 243 °C
NC(=O)c1sc2nccc(N3CCN(c4ncccn4)CC3)c2c1N [Example 44, 3-amino-4-(4-pyrimidin-2-ylpiperazin-1-yl)thieno[2,3-b]pyridine-2-carboxamide] | 280 °C (dec.)
NC(=O)c1sc2nccc(N3CCN(c4ccc(F)cc4)CC3)c2c1N [Example 47, 3-amino-4-[4-(4-fluorophenyl)piperazin-1-yl]thieno[2,3-b]pyridine-2-carboxamide] | 275 °C (dec.)
NC(=O)c1sc2nccc(N3CC=C(c4ccccc4)CC3)c2c1N [Example 21, 3-amino-4-(4-phenyl-3,6-dihydropyridin-1(2H)-yl)thieno[2,3-b]pyridine-2-carboxamide] | 235 °C (dec.)
NC(=O)c1sc2nccc(N3CCN(c4ccccc4)CC3)c2c1N [Example 42, 3-amino-4-(4-phenylpiperazin-1-yl)thieno[2,3-b]pyridine-2-carboxamide] | 250 to 252 °C
Cl.Cl.NC(=O)c1sc2nccc(N3CCNCC3)c2c1N | 270 to 280 °C
Cc1ccc(N2CCCN(c3ccnc4sc(C(N)=O)c(N)c34)CC2)cc1F [Example 71, 3-amino-4-[4-(3-fluoro-4-methylphenyl)-1,4-diazepan-1-yl]thieno[2,3-b]pyridine-2-carboxamide] | 79 to 83 °C
NC(=O)c1sc2nccc(N3CCCN(c4ccc(Cl)cc4)CC3)c2c1N [Example 60, 3-amino-4-[4-(4-chlorophenyl)-1,4-diazepan-1-yl]thieno[2,3-b]pyridine-2-carboxamide] | 92 to 96 °C
NC(=O)c1sc2nccc(N3CCCN(c4ccncc4)CC3)c2c1N [Example 100, 3-amino-4-(4-pyridin-4-yl-1,4-diazepan-1-yl)thieno[2,3-b]pyridine-2-carboxamide] | 288 to 291 °C (dec.)
CC(C)(C)OC(=O)N1CCN(c2ccnc3sc(C(N)=O)c(N)c23)CC1 [Example 37, tert-butyl 4-[3-amino-2-(aminocarbonyl)thieno[2,3-b]pyridin-4-yl]piperazine-1-carboxylate] | 198 to 203 °C
NC(=O)c1sc2nccc(N3CCCN(c4cccc([N+](=O)[O-])c4)CC3)c2c1N [Example 80, 3-amino-4-[4-(3-nitrophenyl)-1,4-diazepan-1-yl]thieno[2,3-b]pyridine-2-carboxamide] | 180 to 185 °C

Structure (SMILES) | melting point
NC(=O)c1sc2nccc(N3CC[S+]([O-])CC3)c2c1N [Example 32, 3-amino-4-(1-oxothiomorpholine-4-yl)thieno[2,3-b]pyridine-2-carboxamide] | 165 to 172 °C
NC(=O)c1sc2nccc(N3CCC(c4ccccc4)CC3)c2c1N [Example 31, 3-amino-4-(4-phenylpiperidin-1-yl)thieno[2,3-b]pyridine-2-carboxamide] | 226 to 233 °C
NC(=O)c1sc2nccc(N3CCN(Cc4ccccc4)CC3)c2c1N [Example 43, 3-amino-4-(4-benzylpiperazin-1-yl)thieno[2,3-b]pyridine-2-carboxamide] | 241 to 242 °C
COc1ccc(N2CCN(c3ccnc4sc(C(N)=O)c(N)c34)CC2)cc1 [Example 49, 3-amino-4-[4-(4-methoxyphenyl)piperazin-1-yl]thieno[2,3-b]pyridine-2-carboxamide] | 275 °C (dec.)
NC(=O)c1sc2nccc(N3CCCN(c4cccc(Cl)c4)CC3)c2c1N [Example 78, 3-amino-4-[4-(3-chlorophenyl)-1,4-diazepan-1-yl]thieno[2,3-b]pyridine-2-carboxamide] | 213 to 215 °C
CC(C)Oc1ccnc2sc(C(N)=O)c(N)c12 [Example 111, 3-amino-4-isopropoxythieno[2,3-b]pyridine-2-carboxamide] | 238 to 240 °C (dec.)
NC(=O)c1sc2nccc(N3CCN(c4ccccn4)CC3)c2c1N [Example 45, 3-amino-4-(4-pyridin-2-ylpiperazin-1-yl)thieno[2,3-b]pyridine-2-carboxamide] | 266 to 270 °C
NC(=O)c1sc2nccc(N3CCCN(c4ncnc5ccccc45)CC3)c2c1N [Example 89, 3-amino-4-(4-quinazolin-4-yl-1,4-diazepan-1-yl)thieno[2,3-b]pyridine-2-carboxamide] | 228 to 231 °C
NC(=O)c1sc2nccc(N3CCC(O)CC3)c2c1N [Example 19, 3-amino-4-(4-hydroxypiperidin-1-yl)thieno[2,3-b]pyridine-2-carboxamide] | 239 to 241 °C
COc1ccccc1N1CCN(c2ccnc3sc(C(N)=O)c(N)c23)CC1 [Example 53, 3-amino-4-[4-(2-methoxyphenyl)piperazin-1-yl]thieno[2,3-b]pyridine-2-carboxamide] | 294 °C (dec.)
Cl.Cl.NC(=O)c1sc2nccc(N3CCCNCC3)c2c1N | > 295 °C
CC(=O)N1CCCN(c2ccnc3sc(C(N)=O)c(N)c23)CC1 [Example 103, 4-(4-acetyl-1,4-diazepan-1-yl)-3-aminothieno[2,3-b]pyridine-2-carboxamide] | 214 to 215 °C
C[C@@H]1CN(c2ccnc3sc(C(N)=O)c(N)c23)C[C@H](C)O1 [Example 23, 3-amino-4-(cis-2,6-dimethylmorpholin-4-yl)thieno[2,3-b]pyridine-2-carboxamide] | 242 to 244 °C
CCCNc1ccnc2sc(C(N)=O)c(N)c12 [Example 4, 3-amino-4-(propylamino)thieno[2,3-b]pyridine-2-carboxamide] | 214 to 215 °C
NC(=O)c1sc2nccc(NCCCc3ccccc3)c2c1N [Example 9, 3-amino-4-[(3-phenylpropyl)amino]thieno[2,3-b]pyridine-2-carboxamide] | 232 to 234 °C
Cc1ccccc1N1CCCN(c2ccnc3sc(C(N)=O)c(N)c23)CC1 [Example 70, 3-amino-4-[4-(2-toluyl)-1,4-diazepan-1-yl]thieno[2,3-b]pyridine-2-carboxamide] | 206 to 209 °C (dec.)
NC(=O)c1sc2nccc(N3CCc4ccccc4C3)c2c1N [Example 27, 3-amino-4-(3,4-dihydroisoquinoline-2(1H)-yl)thieno[2,3-b]pyridine-2-carboxamide] | 244 to 245 °C
Cc1cccc(N2CCN(c3ccnc4sc(C(N)=O)c(N)c34)CC2C)c1 (stereo not drawn) [Example 95, 3-amino-4-[3-methyl-4-(3-methylphenyl)piperazin-1-yl]thieno[2,3-b]pyridine-2-carboxamide] | 215 to 217 °C
CN1CCN(c2ccnc3sc(C(N)=O)c(N)c23)CC1 [Example 39, 3-amino-4-(4-methylpiperazin-1-yl)thieno[2,3-b]pyridine-2-carboxamide] | 260 to 263 °C
NC(=O)c1sc2nccc(N3CCCN(c4ccc(C(F)(F)F)cc4)CC3)c2c1N [Example 63, 3-amino-4-[4-(4-trifluoromethylphenyl)-1,4-diazepan-1-yl]thieno[2,3-b]pyridine-2-carboxamide] | 204 to 208 °C
NC(=O)c1sc2nccc(N3CCCC3)c2c1N [Example 13, 3-amino-4-pyrrolidin-1-ylthieno[2,3-b]pyridine-2-carboxamide] | 275 to 283 °C
NC(=O)c1sc2nccc(N3CCCN(c4ccccc4Cl)CC3)c2c1N [Example 61, 3-amino-4-[4-(2-chlorophenyl)-1,4-diazepan-1-yl]thieno[2,3-b]pyridine-2-carboxamide] | 206 to 210 °C
